From paper PMC12592400, “A unique inhibitor conformation selectively targets the DNA polymerase PolC of Gram-positive priority pathogens” (Nature Communications, 2025)
Several values for one entry are separate records, joined by “and”; a condition that tells them apart may be missing. Equal values may be shown once.

Experiments:
[1] = biological target: exonuclease-inactivated E. faecium PolC (Exo^null, PolC^D431A+E433A) (Enterococcus faecium, UniProt A0A9X4B319, D429A/E431A); assay: Real-time DNA primer extension assay; assay type: biochemical; conditions: for IC50: n = 3, ± SEM
Experimental: (§1) Polymerase activity was monitored in real-time[31],[32] with a 42-nt long 5’ carboxyfluorescein-labelled DNA oligonucleotide template strand (DNASP8_42) annealed to a 30-nt primer oligonucleotide (oMU014). Polymerase activity in this assay is monitored by measuring fluorescence quenching of the labelled DNA template as a result of primer extension by PolC (for details see Supplementary Fig. 1b, c). Both primers were HPLC purified. Primer extension assays were performed in Reaction Buffer (see Gel-based polymerase and exonuclease assays) supplemented with 0.5 mg/mL BSA, 0.05% Tween20 and 25 uM of each dNTP (SRB) in 384-well Black Round Bottom plates (Corning 4514). The polymerase was diluted in the SRB and incubated for at least 5 min in the presence of inhibitor or solvent, with a final solvent concentration of 1%. The reaction was initiated by the addition of an equal volume of DNA substrate in SRB as described below. Fluorescence emission data was collected with a BMG Labtech PHERAstar FSX reader for 30 min at room temperature.
(§2) Compounds were dispensed with an Echo acoustic liquid handler (Beckman Coulter). All compounds were dissolved to 1 mM and 10 mM stocks in 100% DMSO and transferred to Echo LDV or PP source plates (Labcyte, Inc., CA), then dispensed to 384-well plates with a Labcyte Echo550 or Echo650 acoustic dispenser at volumes of 2.5 to 100 nL per well. […] A Mantis microfluidic liquid dispenser (Formulatrix) was used to dispense 5 µL polymerase and 5 µL substrate DNA (individually diluted in SRB) per well. […] The final concentration of DNA was 70 nM.
(§3) Data were analysed and standard error of the means (SEM) determined in Prism 8.4.2 and 10.2.3 (GraphPad). Raw time-course polymerase activity was plotted against time, with SEM of triplicates determined. The rate of activity (represented by signal quenching) was determined during the first 8 min (linear stage) by calculating the slope of fluorescence intensity change (converted to a positive value) over time (in seconds). The slopes were then normalized to percentage activity (%); per ‘replicate range’, 100% activity was defined as polymerase activity in the absence of inhibitor (polymerase control), and 0% activity was determined in the absence of polymerase (DNA signal; negative control). The SEM was determined between ‘replicate ranges’. The IC50 was determined using the dose-response (inhibition) nonlinear regression ‘[Inhibitor] vs. response (three parameters)’ without constraints.

E. coli Pol IIIα = biological target: T1, E. coli Pol IIIα (Escherichia coli, UniProt P10443); assay: Real-time DNA primer extension assay; assay type: biochemical; set-up: key to rate of activity (slope of fluorescence intensity change over time): slope of fluorescence intensity change per second (made positive); conditions: for rate of activity (slope of fluorescence intensity change over time): Fig. 1f source data, E. coli PolIIIα; for IC50: Fig. 1f, n = 3, read-out: PolIIIα IC50
T1 construct: made in house
Source text: DnaE from E. coli was purified as described before[33],[34].
as §1, §2, §3

[2] = Fig. 1e source data, inhibitor 2.5 uM, replicates 1-3
[3] = Fig. 1e source data, inhibitor 4 uM, replicates 1-3
[4] = Fig. 1e source data, inhibitor 5.75 uM, replicates 1-3
[5] = Fig. 1e source data, inhibitor 8.75 uM, replicates 1-3
[6] = Fig. 1e source data, inhibitor 12.5 uM, replicates 1-3
[7] = Fig. 1e source data, inhibitor 20 uM, replicates 1-3
[8] = Fig. 1e source data, inhibitor 30 uM, replicates 1-3
[9] = Fig. 1e source data, inhibitor 45 uM, replicates 1-3
[10] = Fig. 1e source data, inhibitor 67.5 uM, replicates 1-3
[11] = Fig. 1e source data, inhibitor 100 uM, replicates 1-3
[12] = Fig. 4b source data, PolC (Exonull), inhibitor 1 uM
[13] = Fig. 4b source data, PolC (Exonull), inhibitor 1.75 uM
[14] = Fig. 4b source data, PolC (Exonull), inhibitor 2.5 uM
[15] = Fig. 4b source data, PolC (Exonull), inhibitor 4 uM
[16] = Fig. 4b source data, PolC (Exonull), inhibitor 5.75 uM
[17] = Fig. 4b source data, PolC (Exonull), inhibitor 8.8 uM
[18] = Fig. 4b source data, PolC (Exonull), inhibitor 20 uM
[19] = IC50, Fig. 1e, inhibitor 2.5-100 μM
[20] = IC50 PolC, Fig. 4b, wild-type PolC (exonuclease-inactivated), inhibitor up to 225 μM

T1 sequence (P10443 whole entry): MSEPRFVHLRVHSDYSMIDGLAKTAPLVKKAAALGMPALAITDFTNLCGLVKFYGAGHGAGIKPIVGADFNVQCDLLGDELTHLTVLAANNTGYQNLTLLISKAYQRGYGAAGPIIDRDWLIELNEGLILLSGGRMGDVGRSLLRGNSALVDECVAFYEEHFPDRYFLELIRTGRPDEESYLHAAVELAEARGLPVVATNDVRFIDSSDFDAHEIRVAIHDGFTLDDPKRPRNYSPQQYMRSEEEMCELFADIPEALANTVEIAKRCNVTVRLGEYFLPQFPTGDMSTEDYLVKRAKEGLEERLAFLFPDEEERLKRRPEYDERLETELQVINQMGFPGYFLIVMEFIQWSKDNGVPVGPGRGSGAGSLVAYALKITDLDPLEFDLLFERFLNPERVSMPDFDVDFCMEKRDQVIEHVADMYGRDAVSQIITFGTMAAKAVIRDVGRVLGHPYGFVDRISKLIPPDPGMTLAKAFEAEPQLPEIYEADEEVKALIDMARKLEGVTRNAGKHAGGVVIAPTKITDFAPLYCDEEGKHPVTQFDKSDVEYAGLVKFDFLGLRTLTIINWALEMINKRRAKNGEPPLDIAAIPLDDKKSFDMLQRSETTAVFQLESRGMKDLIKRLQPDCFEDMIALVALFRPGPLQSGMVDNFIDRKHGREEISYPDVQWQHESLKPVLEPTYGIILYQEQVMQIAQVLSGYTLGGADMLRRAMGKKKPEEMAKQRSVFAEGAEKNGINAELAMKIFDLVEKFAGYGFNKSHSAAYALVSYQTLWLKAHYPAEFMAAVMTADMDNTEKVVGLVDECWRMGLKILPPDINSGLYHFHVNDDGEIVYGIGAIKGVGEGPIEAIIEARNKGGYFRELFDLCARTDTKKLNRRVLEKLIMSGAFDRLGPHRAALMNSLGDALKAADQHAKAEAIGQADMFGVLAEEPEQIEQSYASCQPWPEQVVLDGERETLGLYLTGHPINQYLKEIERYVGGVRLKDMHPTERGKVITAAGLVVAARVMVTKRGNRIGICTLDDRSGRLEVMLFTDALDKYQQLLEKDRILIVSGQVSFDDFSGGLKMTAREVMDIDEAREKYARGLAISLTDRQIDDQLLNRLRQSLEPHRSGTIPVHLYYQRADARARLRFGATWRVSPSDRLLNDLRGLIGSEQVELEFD

Compound | rate of activity (slope of fluorescence intensity change over time) [1, 2] | rate of activity (slope of fluorescence intensity change over time) [1, 3] | rate of activity (slope of fluorescence intensity change over time) [1, 4] | rate of activity (slope of fluorescence intensity change over time) [1, 5] | rate of activity (slope of fluorescence intensity change over time) [1, 6] | rate of activity (slope of fluorescence intensity change over time) [1, 7] | rate of activity (slope of fluorescence intensity change over time) [1, 8] | rate of activity (slope of fluorescence intensity change over time) [1, 9] | rate of activity (slope of fluorescence intensity change over time) [1, 10] | rate of activity (slope of fluorescence intensity change over time) [1, 11] | rate of activity (slope of fluorescence intensity change over time) [1, 12] | rate of activity (slope of fluorescence intensity change over time) [1, 13] | rate of activity (slope of fluorescence intensity change over time) [1, 14] | rate of activity (slope of fluorescence intensity change over time) [1, 15] | rate of activity (slope of fluorescence intensity change over time) [1, 16] | rate of activity (slope of fluorescence intensity change over time) [1, 17] | rate of activity (slope of fluorescence intensity change over time) [1, 18] | IC50 [1, 19] [µM] | IC50 [1, 20] [µM] | rate of activity (slope of fluorescence intensity change over time) (E. coli Pol IIIα; inhibitor 2.5 uM) | also measured
O=c1[nH]c(NCc2ccc3c(c2)OC(F)(F)O3)nc2c(F)nn(CCO)c12 [ACX-801, 5-(((2,2-difluorobenzo[d][1,3]dioxol-5-yl)methyl)amino)-3-fluoro-1-(2-hydroxyethyl)-1,6-dihydro-7H-pyrazolo[4,3-d]pyrimidin-7-one] | 16.9 and 13.9 and 11.9 | 8.8 and 10.0 | 8.5 and 6.8 and 7.4 | 6.9 and 3.4 and 4.8 | 9.5 and 6.4 and 6.3 | 3.9 and 4.0 and 3.8 | 1.2 (2×) and 2.5 | 0.4 and -0.11 and -1.5 | -0.534 and -0.6 and -2.3 | -1.1 and -0.9 and -1.0 | 39.9 and 41.9 | 37.2 and 42.3 and 40.2 | 36.3 and 36.1 | 30.8 and 32.5 and 32.0 | 23.4 and 22.7 and 23.0 | 23.6 and 23.3 and 21.3 | 11.8 and 10.7 and 11.9 | 5.8 | 11.7 ± 1.1 | 16.3 and 12.4 and 15.4 | rate of activity (slope of fluorescence intensity change over time) ([1]; Fig. 4b source data, PolC (Exonull), inhibitor 30 uM): 6.7 and 7.0 and 4.9; rate of activity (slope of fluorescence intensity change over time) (E. coli Pol IIIα; inhibitor 4 uM): 16.6 and 16.5 and 16.7; rate of activity (slope of fluorescence intensity change over time) (E. coli Pol IIIα; inhibitor 12.5 uM): 21.1 and 17.1 and 17.2; rate of activity (slope of fluorescence intensity change over time) (E. coli Pol IIIα; inhibitor 20 uM): 17.9 and 17.4 and 20.0; rate of activity (slope of fluorescence intensity change over time) (E. coli Pol IIIα; inhibitor 30 uM): 18.5 and 16.7 and 17.5; rate of activity (slope of fluorescence intensity change over time) (E. coli Pol IIIα; inhibitor 45 uM): 13.8 and 14.5 and 13.7; rate of activity (slope of fluorescence intensity change over time) (E. coli Pol IIIα; inhibitor 67.5 uM): 17.1 and 17.3 and 12.6; rate of activity (slope of fluorescence intensity change over time) (E. coli Pol IIIα; inhibitor 100 uM): 15.2 and 13.3 and 12.6; IC50 (E. coli Pol IIIα): > 100 µM
O=c1[nH]c(NCc2ccc(Cl)c(Cl)c2)nc2ncn(CCN3CCOCC3)c12 [IBZ, N^2-(3,4-dichlorobenzyl)-7-(2-[1-morpholinyl]ethyl)guanine] | 31.9 and 18.7 and 16.2 | 28.6 and 14.0 | 24.9 and 15.1 and 11.5 | 19.6 and 9.9 and 9.1 | 18.4 and 12.8 and 8.3 | 8.2 and 4.7 | 9.1 and 5.5 and 3.7 | 6.8 and 2.9 and 1.6 | 4.7 and 1.7 and -0.348 | -0.9 and -0.439 and 1.4 | 34.5 and 33.9 and 33.6 | 31.8 and 30.8 | 27.4 and 24.3 | 19.3 and 20.4 | 12.7 and 13.8 | 8.9 and 8.1 and 9.9 | 4.0 and 3.7 and 2.8 | 12.3 | 4.7 ± 0.3 | 18.2 and 16.5 and 13.6 | rate of activity (slope of fluorescence intensity change over time) (E. coli Pol IIIα; inhibitor 4 uM): 15.9 and 17.9 and 15.0; rate of activity (slope of fluorescence intensity change over time) (E. coli Pol IIIα; inhibitor 12.5 uM): 25.0 and 21.1 and 24.7; rate of activity (slope of fluorescence intensity change over time) (E. coli Pol IIIα; inhibitor 20 uM): 29.3 and 21.9 and 23.5; rate of activity (slope of fluorescence intensity change over time) (E. coli Pol IIIα; inhibitor 30 uM): 26.6 and 21.8 and 26.2; rate of activity (slope of fluorescence intensity change over time) (E. coli Pol IIIα; inhibitor 45 uM): 27.8 and 27.6 and 30.0; rate of activity (slope of fluorescence intensity change over time) (E. coli Pol IIIα; inhibitor 67.5 uM): 28.5 and 30.7 and 23.6; rate of activity (slope of fluorescence intensity change over time) (E. coli Pol IIIα; inhibitor 100 uM): 31.4 and 35.8 and 26.7; IC50 (E. coli Pol IIIα): > 100 µM
